In brackets after ≈: the same amount, converted by molar mass.
Columns and labels:
[1] = Stability in solution (physicochemical properties); settings: for Stability in strongly acidic and strongly alkaline solution: strongly acidic and strongly alkali(ne) solution
Source text: (§1) Stable in neutral and mildly acidic medium but unstable in strongly acidic and strongly alkali solution. […] Stable in neutral and mildly acidic medium but unstable in strongly acidic and strongly alkaline solution.

Staphylococcus aureus = experiment: Agar diffusion test; type: cell-based; settings: 37° C., 16 hours
Protocol: Agar plates containing 2 ml of Staphylococcus aureus inoculum in 200 ml of agar solution were prepared. gabusectin was applied, in a 10 mM solution, to 6 mm-diameter paper disks, which were then laid on the agar plate. The inoculated Staphylococcus plates were incubated at 37° C. for 16 hours. Inhibition halos having the following diameters (mm) were then observed: Agar plates containing 2 ml of Staphylococcus aureus inoculum in 200 ml of agar solution were prepared. gabusectin methyl ester is applied, in a 10 mM solution, to 6 mm-diameter paper disks, which are then laid on the agar plate. The inoculated Staphylococcus plates were incubated at 37° C. for 16 hours. Inhibition halos having the following diameters (mm) were then observed.

[2] = Solubility (appearance/physicochemical properties)
Source text: as §1

Tolerability = settings: at and above its effective concentration
Source text: Gabusectin is well-tolerated at and above its effective concentration.

S. pyogenes (A561) = experiment: In-vitro antibacterial activity, serial dilution test; type: cell-based; settings: Streptococcus pyogenes
Source text: (§2) Table 1 summarizes the minimum inhibitory concentrations (MICs) of gabusectin, by way of example.

E. faecium (M78L) = experiment: as above; type: cell-based; settings: Enterococcus faecium, read-out: MIC values
Source text: as §2

S. aureus (SG511) = experiment: as above; type: cell-based; settings: Staphylococcus aureus
Source text: as §2

S. aureus (Exp54146) = experiment: as above; type: cell-based; settings: Staphylococcus aureus
Source text: as §2

[3] = 10 μL of 10 mM solution on 6 mm paper disk
[4] = 20 μL of 10 mM solution on 6 mm paper disk
[5] = 40 μL of 10 mM solution on 6 mm paper disk

| SMILES | Stability in neutral and mildly acidic medium [1] | Stability in strongly acidic and strongly alkaline solution [1] | Inhibition halo size (Staphylococcus aureus; [3]) [mm] | Inhibition halo size (Staphylococcus aureus; [4]) [mm] | Inhibition halo size (Staphylococcus aureus; [5]) [mm] | Solubility in medium-polar and polar organic solvents [2] | Solubility in water [2] | Tolerability (Tolerability) | MIC (S. pyogenes (A561)) [µg/mL] | MIC (E. faecium (M78L)) [µg/mL] | MIC (S. aureus (SG511)) [µg/mL] | MIC (S. aureus (Exp54146)) [µg/mL] |
| --- | --- | --- | --- | --- | --- | --- | --- | --- | --- | --- | --- | --- |
| C/C=C/[C@H]1C(C)=C[C@@]2(C)C[C@H](C)CC[C@H]2[C@]1(C)/C(O)=C1\C(=O)C(CCC(=O)OC)N(C)C1=O (stereo partly shown) [gabusectin methyl ester] | Stable | unstable | 0 | 7 | 8 | soluble | not particularly soluble |  |  |  |  |  |
| C/C=C/C1C(C)=CC2(C)CC(C)CCC2C1(C)/C(O)=C1\C(=O)C(CCC(=O)O)N(C)C1=O (stereo not shown) [gabusectin] | Stable | unstable | 8 | 14 | 17 | soluble | not particularly soluble | well-tolerated | 20 (≈ 45.1 µM) | 40 (≈ 90.2 µM) | 5 (≈ 11.3 µM) | 20 (≈ 45.1 µM) |
